# According to US4110327A, “2,3 Diketo-piperazinocarbonylamino alkanoic acids and derivatives” (Toyama Chemical Co., Ltd., priority 1974, dated 1978):
# Experiments:
# Escherichia coli NIHJ = assay: MIC against standard strain, plate method; format: cell-based; conditions: unit assumed
# How it was run: (§1)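 Heart infusion agar (pH 7.4) plates; inoculum 10^4 cells/plate (10^6 cells/ml suspension); MIC read by plate method.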
# Klebsiella pneumoniae [1] = assay: MIC against standard strain, plate method; format: cell-based; conditions: unit assumed
# How it was run: as §1
# Proteus vulgaris 3027 = assay: MIC against standard strain, plate method; format: cell-based; conditions: Proteus vulgaris 3027, standard strain; unit assumed
# How it was run: as §1
# [2] = tested on: Pseudomonas aeruginosa I.F.O.; assay: MIC against standard strain, plate method; format: cell-based; conditions: unit assumed
# How it was run: as §1
# [3] = tested on: Staphylococcus aureus 209p; assay: MIC against standard strain, plate method; format: cell-based; conditions: unit assumed
# How it was run: as §1
# Staphylococcus aureus = assay: MIC against clinical isolates; format: cell-based; conditions: unit assumed
# Escherichia coli = assay: MIC against clinical isolates; format: cell-based; conditions: unit assumed
# Pseudomonas aeruginosa = assay: MIC against clinical isolates; format: cell-based; conditions: unit assumed
# Klebsiella pneumoniae [4] = assay: MIC against clinical isolates; format: cell-based; conditions: unit assumed
# Proteus mirabilis = assay: MIC against clinical isolates; format: cell-based; conditions: clinical isolate, unit assumed
# Proteus morganii = assay: MIC against clinical isolates; format: cell-based; conditions: clinical isolate, unit assumed
# Proteus vulgaris = assay: MIC against clinical isolates; format: cell-based; conditions: clinical isolate, unit assumed
# Proteus rettgeri = assay: MIC against clinical isolates; format: cell-based; conditions: clinical isolate, unit assumed
# β-lactamase = assay: Resistant activity against β-lactamase, iodometric assay; format: biochemical, Pseudomonas aeruginosa GN 238; conditions: relative to Potassium Penicillin G = 100
# Method: (3) Resistant activity against β-lactamase, Pseudomonas aergionan GN 238:
# The resistant activity of each compound against β-lactamase was measured in the manner described below.
# β-Lactamase was prepared from Pseudomonas aeruginosa GN 238. This microorganism was cultured in 100 ml of a medium containing 2 g of yeast extract, 10 g of polypeptone, 2 g of glucose, 7 g of disodium hydrogen phosphate, 2 g of potassium dihydrogen phosphate, 1.2 g of ammonium sulfate and 0.4 g of magnesium sulfate, per liter, in a 500-ml Erlenmeyer flask for 6 hrs. at 37° C with shaking. The resulting cells were collected by centrifugation (5,000 r.p.m. × 10 min.), washed three times with 0.1 M phosphate buffer (pH 7.0). Subsequently, the cells were subjected to sonication (20 KHz, 20 min.) and then centrifuged at 15,000 r.p.m. for 60 min. By using the supernatant of enzyme fluid, the resistance of each compound against β-lactamase was determined by the iodometric assay method. Each numeral shown in Table 7 is a relative activity value calculated by assuming as 100 the activity of the control Potassium Penicillin G.
# [5] = clinical isolate GN (number not given; Table 5-3)
smiles,measurement,setting,value
CCCCCCCCN1CCN(C(=O)N[C@@H](C(=O)N[C@@H]2C(=O)N3[C@@H]2SC(C)(C)[C@@H]3C(=O)O)c2ccccc2)CC1=O [compound 30],MIC,Escherichia coli NIHJ,< 1.57 µg/mL
same,MIC,Klebsiella pneumoniae [1],6.25 µg/mL
same,MIC,Proteus vulgaris 3027,3.13 µg/mL
same,MIC,[2],25 µg/mL
same,MIC,[3],< 1.57 µg/mL
same,MIC,Staphylococcus aureus; clinical isolate F-1,3.13 µg/mL
same,MIC,Staphylococcus aureus; clinical isolate F-2,0.79 µg/mL
same,MIC,Staphylococcus aureus; clinical isolate F-3,0.79 µg/mL
same,MIC,Staphylococcus aureus; clinical isolate F-4,3.13 µg/mL
same,MIC,Staphylococcus aureus; clinical isolate F-5,100 µg/mL
same,MIC,Staphylococcus aureus; clinical isolate MS 8588,1.57 µg/mL
same,MIC,Staphylococcus aureus; clinical isolate MS 8596,1.57 µg/mL
same,MIC,Staphylococcus aureus; clinical isolate MS 8619,< 0.4 µg/mL
same,MIC,Staphylococcus aureus; clinical isolate MS 8684,1.57 µg/mL
same,MIC,Staphylococcus aureus; clinical isolate MS 8713,1.57 µg/mL
same,MIC,Escherichia coli; clinical isolate GN 3435,12.5 µg/mL
same,MIC,Escherichia coli; clinical isolate GN 3452,25 µg/mL
same,MIC,Escherichia coli; clinical isolate GN 3465,50 µg/mL
same,MIC,Escherichia coli; clinical isolate GN 3481,25 µg/mL
same,MIC,Escherichia coli; clinical isolate GN 3611,> 200 µg/mL
same,MIC,Escherichia coli; clinical isolate K-1,12.5 µg/mL
same,MIC,Escherichia coli; clinical isolate K-2,25 µg/mL
same,MIC,Escherichia coli; clinical isolate K-3,> 200 µg/mL
same,MIC,Escherichia coli; clinical isolate K-4,12.5 µg/mL
same,MIC,Pseudomonas aeruginosa; clinical isolate GN 82,25 µg/mL
same,MIC,Pseudomonas aeruginosa; clinical isolate GN 163,25 µg/mL
same,MIC,Pseudomonas aeruginosa; clinical isolate GN 221,50 µg/mL
same,MIC,Pseudomonas aeruginosa; clinical isolate GN 376,50 µg/mL
same,MIC,Pseudomonas aeruginosa; clinical isolate GN 383,50 µg/mL
same,MIC,Pseudomonas aeruginosa; clinical isolate GN 1035,50 µg/mL
same,MIC,Pseudomonas aeruginosa; clinical isolate GN 1091,25 µg/mL
same,MIC,Pseudomonas aeruginosa; clinical isolate GN 2565,50 µg/mL
same,MIC,Pseudomonas aeruginosa; clinical isolate GN 2987,12.5 µg/mL
same,MIC,Pseudomonas aeruginosa; [5],50 µg/mL
same,MIC,Pseudomonas aeruginosa; clinical isolate S-1,50 µg/mL
same,MIC,Pseudomonas aeruginosa; clinical isolate S-2,50 µg/mL
same,MIC,Pseudomonas aeruginosa; clinical isolate S-3,100 µg/mL
same,MIC,Pseudomonas aeruginosa; clinical isolate S-4,50 µg/mL
same,MIC,Klebsiella pneumoniae [4]; clinical isolate GN 917,25 µg/mL
same,MIC,Klebsiella pneumoniae [4]; clinical isolate GN 3850,25 µg/mL
same,MIC,Klebsiella pneumoniae [4]; clinical isolate GN 4081,100 µg/mL
same,MIC,Klebsiella pneumoniae [4]; clinical isolate GN 4117,100 µg/mL
same,MIC,Proteus mirabilis,3.13 µg/mL
same,MIC,Proteus morganii,3.13 µg/mL
same,MIC,Proteus vulgaris,3.13 µg/mL
same,MIC,Proteus rettgeri,12.5 µg/mL
same,Relative activity,β-lactamase,3%
"CC1(C)S[C@@H]2[C@H](NC(=O)C(C(=O)O)c3ccccc3)C(=O)N2[C@H]1C(=O)O (stereo partly shown) [Sodium Carbenicillin, SodiumCarbenicillin, reference compound]",MIC,Escherichia coli NIHJ,< 1.57 µg/mL
same,MIC,Klebsiella pneumoniae [1],> 200 µg/mL
same,MIC,Proteus vulgaris 3027,< 1.57 µg/mL
same,MIC,[2],50 µg/mL
same,MIC,[3],< 1.57 µg/mL
same,MIC,Staphylococcus aureus; clinical isolate F-5,> 200 µg/mL
same,MIC,Staphylococcus aureus; clinical isolate MS 8619,0.79 µg/mL
same,MIC,Escherichia coli; clinical isolate GN 3465,> 200 µg/mL
same,MIC,Escherichia coli; clinical isolate GN 3611,> 200 µg/mL
same,MIC,Escherichia coli; clinical isolate K-3,> 200 µg/mL
same,MIC,Pseudomonas aeruginosa; clinical isolate GN 82,100 µg/mL
same,MIC,Pseudomonas aeruginosa; clinical isolate GN 163,50 µg/mL
same,MIC,Pseudomonas aeruginosa; clinical isolate GN 221,25 µg/mL
same,MIC,Pseudomonas aeruginosa; clinical isolate GN 376,50 µg/mL
same,MIC,Pseudomonas aeruginosa; clinical isolate GN 383,30 µg/mL
same,MIC,Pseudomonas aeruginosa; clinical isolate GN 1035,> 200 µg/mL
same,MIC,Pseudomonas aeruginosa; clinical isolate GN 1091,100 µg/mL
same,MIC,Pseudomonas aeruginosa; clinical isolate GN 2565,200 µg/mL
same,MIC,Pseudomonas aeruginosa; clinical isolate GN 2987,50 µg/mL
same,MIC,Pseudomonas aeruginosa; [5],50 µg/mL
same,MIC,Pseudomonas aeruginosa; clinical isolate S-1,200 µg/mL
same,MIC,Pseudomonas aeruginosa; clinical isolate S-2,200 µg/mL
same,MIC,Pseudomonas aeruginosa; clinical isolate S-3,200 µg/mL
same,MIC,Pseudomonas aeruginosa; clinical isolate S-4,200 µg/mL
same,MIC,Klebsiella pneumoniae [4]; clinical isolate GN 917,> 200 µg/mL
same,MIC,Klebsiella pneumoniae [4]; clinical isolate GN 4081,> 200 µg/mL
same,MIC,Klebsiella pneumoniae [4]; clinical isolate GN 4117,> 200 µg/mL
same,MIC,Proteus mirabilis,0.8 µg/mL
same,MIC,Proteus morganii,0.4 µg/mL
same,MIC,Proteus vulgaris,0.8 µg/mL
same,MIC,Proteus rettgeri,> 200 µg/mL
same,Relative activity,β-lactamase,116%
